The data set can be described thus: Hygroscopicity: water content of crystals after storage in a desiccator (e.g. Karl Fischer method). Type of data set: physicochemical. To be noted: after 24 hours inside a dessicator at 60°C and a humidity of 100%. The protocol: Aripiprazole Anhydride Crystals B of the present invention have low hygroscopicity. For example, Aripiprazole Anhydride Crystals B of the present invention maintain a water content of 0.4% or less after 24 hours inside a dessicator set at a temperature of 60°C and a humidity of 100%.
Well-known methods of measuring water content can be used as long as they are methods commonly used for measuring the water content of crystals. For example, a method such as the Karl Fischer method can be used.

Drawing on EP1441698B1, “FLASHMELT ORAL DOSAGE FORMULATION” (Otsuka Pharmaceutical Co., Ltd., priority 2001, dated 2003), this text covers water content for 1 molecule.

SMILES strings stand for the structures. Some results are limits rather than exact numbers.

`O=C1CCc2ccc(OCCCCN3CCN(c4cccc(Cl)c4Cl)CC3)cc2N1` [Aripiprazole Anhydride Crystals B, aripiprazole] gave a water content of at most 0.4%.
